Laboratory results published in PubChem BioAssay AID2060904 (Molecular Pharmacology Branch, DTP, NCI, 2025).
Blank lines part the entries; values can stand above or below the compound they belong to.

Tested on: 349418-098-R-PDC complex spheroid viability
Test: Anticancer human tumor 349418-098-R-PDC patient-derived lung adenocarcinoma cell line growth inhibition [RAS]
Conditions: for IC50: curve of first compound; for viability, T/C: stronger effect = lower value
Method in brief: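 Agents were tested in combination matrices in half-log decrements from a top concentration at or near clinical Cmax (10 microM if undetermined). Targets were multi-cell spheroids of tumour lines plus HUVEC and MSC stromal cells.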

[1] = second compound 0.000949 µM, first compound 0.00316 µM
[2] = second compound 0.000949 µM, first compound 0.01 µM
[3] = second compound 0.000949 µM, first compound 0.0316 µM
[4] = second compound 0.000949 µM, first compound 0.1 µM
[5] = second compound 0.000949 µM, first compound 0.316 µM
[6] = second compound 0.000949 µM, first compound 1 µM
[7] = second compound 0.003 µM, first compound 0.00316 µM
[8] = second compound 0.003 µM, first compound 0.01 µM
[9] = second compound 0.003 µM, first compound 0.0316 µM
[10] = second compound 0.003 µM, first compound 0.1 µM
[11] = second compound 0.003 µM, first compound 0.316 µM
[12] = second compound 0.003 µM, first compound 1 µM
[13] = second compound 0.00949 µM, first compound 0.00316 µM
[14] = second compound 0.00949 µM, first compound 0.01 µM
[15] = second compound 0.00949 µM, first compound 0.0316 µM
[16] = second compound 0.00949 µM, first compound 0.1 µM
[17] = second compound 0.00949 µM, first compound 0.316 µM
[18] = second compound 0.00949 µM, first compound 1 µM
[19] = second compound 0.03 µM, first compound 0.00316 µM
[20] = second compound 0.03 µM, first compound 0.01 µM
[21] = second compound 0.03 µM, first compound 0.0316 µM
[22] = second compound 0.03 µM, first compound 0.1 µM
[23] = second compound 0.03 µM, first compound 0.316 µM
[24] = second compound 0.03 µM, first compound 1 µM
[25] = second compound 0.0949 µM, first compound 0.00316 µM
[26] = second compound 0.0949 µM, first compound 0.01 µM
[27] = second compound 0.0949 µM, first compound 0.0316 µM
[28] = second compound 0.0949 µM, first compound 0.1 µM
[29] = second compound 0.0949 µM, first compound 0.316 µM
[30] = second compound 0.0949 µM, first compound 1 µM
[31] = second compound 0.3 µM, first compound 0.00316 µM
[32] = second compound 0.3 µM, first compound 0.01 µM
[33] = second compound 0.3 µM, first compound 0.0316 µM
[34] = second compound 0.3 µM, first compound 0.1 µM
[35] = second compound 0.3 µM, first compound 0.316 µM
[36] = second compound 0.3 µM, first compound 1 µM
[37] = second compound 0.000949 µM, first compound 0.000949 µM
[38] = second compound 0.000949 µM, first compound 0.003 µM
[39] = second compound 0.000949 µM, first compound 0.00949 µM
[40] = second compound 0.000949 µM, first compound 0.03 µM
[41] = second compound 0.000949 µM, first compound 0.0949 µM
[42] = second compound 0.000949 µM, first compound 0.3 µM
[43] = second compound 0.003 µM, first compound 0.000949 µM
[44] = second compound 0.003 µM, first compound 0.003 µM
[45] = second compound 0.003 µM, first compound 0.00949 µM
[46] = second compound 0.003 µM, first compound 0.03 µM
[47] = second compound 0.003 µM, first compound 0.0949 µM
[48] = second compound 0.003 µM, first compound 0.3 µM
[49] = second compound 0.00949 µM, first compound 0.000949 µM
[50] = second compound 0.00949 µM, first compound 0.003 µM
[51] = second compound 0.00949 µM, first compound 0.00949 µM
[52] = second compound 0.00949 µM, first compound 0.03 µM
[53] = second compound 0.00949 µM, first compound 0.0949 µM
[54] = second compound 0.00949 µM, first compound 0.3 µM
[55] = second compound 0.03 µM, first compound 0.000949 µM
[56] = second compound 0.03 µM, first compound 0.003 µM
[57] = second compound 0.03 µM, first compound 0.00949 µM
[58] = second compound 0.03 µM, first compound 0.03 µM
[59] = second compound 0.03 µM, first compound 0.0949 µM
[60] = second compound 0.03 µM, first compound 0.3 µM
[61] = second compound 0.0949 µM, first compound 0.000949 µM
[62] = second compound 0.0949 µM, first compound 0.003 µM
[63] = second compound 0.0949 µM, first compound 0.00949 µM
[64] = second compound 0.0949 µM, first compound 0.03 µM
[65] = second compound 0.0949 µM, first compound 0.0949 µM
[66] = second compound 0.0949 µM, first compound 0.3 µM
[67] = second compound 0.3 µM, first compound 0.000949 µM
[68] = second compound 0.3 µM, first compound 0.003 µM
[69] = second compound 0.3 µM, first compound 0.00949 µM
[70] = second compound 0.3 µM, first compound 0.03 µM
[71] = second compound 0.3 µM, first compound 0.0949 µM
[72] = second compound 0.3 µM, first compound 0.3 µM
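Also: spheroids exposed to compound for seven days before viability readout.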

IC50 (second compound 0.000949 µM): > 1000 nM
IC50 (second compound 0.003 µM): > 1000 nM
IC50 (second compound 0.00949 µM): > 1000 nM
IC50 (second compound 0.03 µM): > 1000 nM
IC50 (second compound 0.0949 µM): > 1000 nM
IC50 (second compound 0.3 µM): > 1000 nM
Compound: C=CC(=O)N1CCN(c2nc(OCC3CCCN3C)nc3c(F)c(-c4nc(N)cc(C)c4C(F)(F)F)c(Cl)cc23)C(C)C1 (stereo not drawn) + CCn1c(-c2cc(N3CCN(C)CC3)cnc2C(C)OC)c2c3cc(ccc31)-c1csc(n1)CC(NC(=O)C1CC1C)C(=O)N1CCCC(N1)C(=O)OCC(C)(C)C2
viability, T/C [1]: 117%
viability, T/C [2]: 82.4%
viability, T/C [3]: 109%
viability, T/C [4]: 101%
viability, T/C [5]: 96.8%
viability, T/C [6]: 101%
viability, T/C [7]: 90.3%
viability, T/C [8]: 105%
viability, T/C [9]: 96.1%
viability, T/C [10]: 86.7%
viability, T/C [11]: 99.9%
viability, T/C [12]: 82.2%
viability, T/C [13]: 101%
viability, T/C [14]: 97.1%
viability, T/C [15]: 104%
viability, T/C [16]: 98.9%
viability, T/C [17]: 106%
viability, T/C [18]: 80.7%
viability, T/C [19]: 99%
viability, T/C [20]: 110%
viability, T/C [21]: 99.7%
viability, T/C [22]: 102%
viability, T/C [23]: 97.4%
viability, T/C [24]: 82.3%
viability, T/C [25]: 92.5%
viability, T/C [26]: 110%
viability, T/C [27]: 112%
viability, T/C [28]: 112%
viability, T/C [29]: 113%
viability, T/C [30]: 102%
viability, T/C [31]: 110%
viability, T/C [32]: 94.3%
viability, T/C [33]: 105%
viability, T/C [34]: 109%
viability, T/C [35]: 99.7%
viability, T/C [36]: 90.5%

IC50 (second compound 0.000949 µM): 1.07 nM
IC50 (second compound 0.003 µM): 1.02 nM
IC50 (second compound 0.00949 µM): < 0.949 nM
IC50 (second compound 0.03 µM): 1.05 nM
IC50 (second compound 0.0949 µM): < 0.949 nM
IC50 (second compound 0.3 µM): 1.09 nM
Compound: CC1(C)CCC(Nc2ncc(C(F)(F)F)c(-c3c[nH]c4c(P(C)(C)=O)c(C#N)ccc34)n2)CN1 (stereo not drawn) + CCn1c(-c2cc(N3CCN(C)CC3)cnc2C(C)OC)c2c3cc(ccc31)-c1csc(n1)CC(NC(=O)C1CC1C)C(=O)N1CCCC(N1)C(=O)OCC(C)(C)C2
viability, T/C [37]: 53.6%
viability, T/C [38]: 23.1%
viability, T/C [39]: 13.3%
viability, T/C [40]: 9.61%
viability, T/C [41]: 8.11%
viability, T/C [42]: 6.35%
viability, T/C [43]: 52.2%
viability, T/C [44]: 22.1%
viability, T/C [45]: 14.4%
viability, T/C [46]: 8.76%
viability, T/C [47]: 7.99%
viability, T/C [48]: 7.95%
viability, T/C [49]: 50.2%
viability, T/C [50]: 26.2%
viability, T/C [51]: 12.5%
viability, T/C [52]: 9.59%
viability, T/C [53]: 9.15%
viability, T/C [54]: 8%
viability, T/C [55]: 53.3%
viability, T/C [56]: 20.5%
viability, T/C [57]: 12.5%
viability, T/C [58]: 9.78%
viability, T/C [59]: 8.18%
viability, T/C [60]: 8.17%
viability, T/C [61]: 49.1%
viability, T/C [62]: 23.5%
viability, T/C [63]: 11.1%
viability, T/C [64]: 10.2%
viability, T/C [65]: 10.9%
viability, T/C [66]: 7.97%
viability, T/C [67]: 53.6%
viability, T/C [68]: 23.7%
viability, T/C [69]: 11.2%
viability, T/C [70]: 11%
viability, T/C [71]: 9.58%
viability, T/C [72]: 7.73%

IC50 (second compound 0.000949 µM): 2.48 nM
IC50 (second compound 0.003 µM): 2.46 nM
IC50 (second compound 0.00949 µM): 3.33 nM
IC50 (second compound 0.03 µM): 2.31 nM
IC50 (second compound 0.0949 µM): 2.78 nM
IC50 (second compound 0.3 µM): 2.42 nM
Compound: CCc1c2c(nc3ccc(O)cc13)-c1cc3c(c(=O)n1C2)COC(=O)[C@]3(O)CC + CCn1c(-c2cc(N3CCN(C)CC3)cnc2C(C)OC)c2c3cc(ccc31)-c1csc(n1)CC(NC(=O)C1CC1C)C(=O)N1CCCC(N1)C(=O)OCC(C)(C)C2
viability, T/C [37]: 88%
viability, T/C [38]: 42.6%
viability, T/C [39]: 12.3%
viability, T/C [40]: 6.15%
viability, T/C [41]: 2.77%
viability, T/C [42]: 1.87%
viability, T/C [43]: 80.7%
viability, T/C [44]: 43.8%
viability, T/C [45]: 13.4%
viability, T/C [46]: 5.78%
viability, T/C [47]: 2.15%
viability, T/C [48]: 1.76%
viability, T/C [49]: 84.5%
viability, T/C [50]: 53.7%
viability, T/C [51]: 13.5%
viability, T/C [52]: 6.16%
viability, T/C [53]: 3.17%
viability, T/C [54]: 1.91%
viability, T/C [55]: 90.9%
viability, T/C [56]: 38%
viability, T/C [57]: 11.6%
viability, T/C [58]: 5.22%
viability, T/C [59]: 2.72%
viability, T/C [60]: 2.61%
viability, T/C [61]: 88.9%
viability, T/C [62]: 47.3%
viability, T/C [63]: 17.3%
viability, T/C [64]: 6.18%
viability, T/C [65]: 2.99%
viability, T/C [66]: 1.97%
viability, T/C [67]: 87.1%
viability, T/C [68]: 41%
viability, T/C [69]: 19.7%
viability, T/C [70]: 7.26%
viability, T/C [71]: 3.82%
viability, T/C [72]: 1.95%

IC50 (second compound 0.000949 µM): > 1000 nM
IC50 (second compound 0.003 µM): > 1000 nM
IC50 (second compound 0.00949 µM): > 1000 nM
IC50 (second compound 0.03 µM): > 1000 nM
IC50 (second compound 0.0949 µM): > 1000 nM
IC50 (second compound 0.3 µM): > 1000 nM
Compound: C=CC(=O)Nc1cc(Nc2nccc(-c3cn(C)c4ccccc34)n2)c(OC)cc1N(C)CCN(C)C + CCn1c(-c2cccnc2C(C)OC)c2c3cc(ccc31)N1CCOC(CC(NC(=O)C(C(C)C)N(C)C(=O)C3(F)CCN(C(=O)C#CC(C)(C)N(C)C)CC3)C(=O)N3CCCC(N3)C(=O)OCC(C)(C)C2)C1
viability, T/C [1]: 115%
viability, T/C [2]: 100%
viability, T/C [3]: 93.6%
viability, T/C [4]: 98.3%
viability, T/C [5]: 95.4%
viability, T/C [6]: 71.8%
viability, T/C [7]: 117%
viability, T/C [8]: 98.6%
viability, T/C [9]: 114%
viability, T/C [10]: 116%
viability, T/C [11]: 116%
viability, T/C [12]: 60.7%
viability, T/C [13]: 109%
viability, T/C [14]: 117%
viability, T/C [15]: 110%
viability, T/C [16]: 96%
viability, T/C [17]: 104%
viability, T/C [18]: 75.9%
viability, T/C [19]: 119%
viability, T/C [20]: 109%
viability, T/C [21]: 105%
viability, T/C [22]: 106%
viability, T/C [23]: 103%
viability, T/C [24]: 75.2%
viability, T/C [25]: 110%
viability, T/C [26]: 99.3%
viability, T/C [27]: 85.4%
viability, T/C [28]: 98.6%
viability, T/C [29]: 101%
viability, T/C [30]: 65.3%
viability, T/C [31]: 90.2%
viability, T/C [32]: 99.8%
viability, T/C [33]: 99.2%
viability, T/C [34]: 100%
viability, T/C [35]: 88.2%
viability, T/C [36]: 65.6%
